In PubChem BioAssay (NCI):
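Where inhibition never reached the appropriate level, the endpoint shown equals the highest concentration tested. Otherwise, values were interpolated linearly from a five-concentration, 48-hour dose response in 96-well plates. The concentration for full growth arrest is given as TGI.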

Legend:
Experiment in all cases: growth of human tumour cells (NCI), 48 h
[1] = system: 786-0 renal
[2] = system: SNB-75 CNS
[3] = system: K-562 leukemia
[4] = system: HT29 colon
[5] = system: UO-31 renal
[6] = system: SK-MEL-2 melanoma
[7] = system: MOLT-4 leukemia
[8] = system: T-47D breast
[9] = system: HCT-15 colon
[10] = system: EKVX NSCLC
[11] = system: A549 NSCLC
[12] = system: SK-MEL-5 melanoma
[13] = system: UACC-257 melanoma
[14] = system: UACC-62 melanoma
[15] = system: SF-295 CNS
[16] = system: OVCAR-5 ovarian
[17] = system: SF-539 CNS
[18] = system: M14 melanoma
[19] = system: NCI-H460 lung
[20] = system: NCI/ADR-RES ovarian
[21] = system: HOP-62 NSCLC
[22] = system: PC-3 prostate
[23] = system: SN12C renal
[24] = system: OVCAR-3 ovarian
[25] = system: MDA-MB-435
[26] = system: COLO 205 colon
[27] = system: MDA-N
[28] = system: HCC-2998 colon
[29] = system: SK-OV-3 ovarian
[30] = system: MDA-MB-231 breast
[31] = system: CAKI-1 renal
[32] = system: CCRF-CEM leukemia
[33] = system: MCF7 breast
[34] = system: HCT-116 colon
[35] = system: HS 578T breast
[36] = system: IGROV1 ovarian
[37] = system: RXF 393 renal
[38] = system: NCI-H226 lung
[39] = system: ACHN renal
[40] = system: RPMI-8226 leukemia
[41] = system: SNB-19 CNS
[42] = system: NCI-H23 lung
[43] = system: DU-145 prostate
[44] = system: SW-620 colon
[45] = system: SK-MEL-28 melanoma
[46] = system: NCI-H522 lung
[47] = system: MALME-3M melanoma
[48] = system: BT-549 breast
[49] = system: TK-10 renal
[50] = system: SF-268 CNS
[51] = system: U251 CNS
[52] = system: KM12 colon
[53] = system: LOX IMVI melanoma
[54] = system: OVCAR-4 ovarian
[55] = system: OVCAR-8 ovarian
[56] = system: HL-60(TB) leukemia
[57] = system: SR leukemia
[58] = system: A498 renal

O=C(NC(=O)c1ccccc1)OC(c1ccccc1)C1CO1 (stereo not given)
TGI [1]: > 100 µM | TGI [2]: > 100 µM | TGI [3]: > 100 µM | TGI [4]: > 100 µM | TGI [5]: > 100 µM | TGI [6]: > 100 µM | TGI [7]: > 100 µM | TGI [8]: > 100 µM | TGI [9]: > 100 µM | TGI [10]: > 100 µM | TGI [11]: > 100 µM | TGI [12]: > 100 µM | TGI [13]: > 100 µM | TGI [14]: > 100 µM | TGI [15]: > 100 µM | TGI [16]: > 100 µM | TGI [17]: > 100 µM | TGI [18]: > 100 µM | TGI [19]: > 100 µM | TGI [20]: > 100 µM | TGI [21]: > 100 µM | TGI [22]: > 100 µM | TGI [23]: > 100 µM | TGI [24]: > 100 µM | TGI [25]: > 100 µM | TGI [26]: > 100 µM | TGI [27]: > 100 µM | TGI [28]: > 100 µM | TGI [29]: > 100 µM | TGI [30]: > 100 µM | TGI [31]: > 100 µM | TGI [32]: > 100 µM | TGI [33]: > 100 µM | TGI [34]: > 100 µM | TGI [35]: > 100 µM | TGI [36]: > 100 µM | TGI [37]: > 100 µM | TGI [38]: > 100 µM | TGI [39]: > 100 µM | TGI [40]: > 100 µM | TGI [41]: > 100 µM | TGI [42]: > 100 µM | TGI [43]: > 100 µM | TGI [44]: > 100 µM | TGI [45]: > 100 µM | TGI [46]: > 100 µM | TGI [47]: > 100 µM | TGI [48]: > 100 µM | TGI [49]: > 100 µM | TGI [50]: > 100 µM | TGI [51]: > 100 µM | TGI [52]: > 100 µM | TGI [53]: > 100 µM | TGI [54]: > 100 µM | TGI [55]: > 100 µM | TGI [56]: > 100 µM

Fc1cc(C2=Nn3c(CNc4ccc(Cl)cc4)nnc3S/C2=C\c2ccc(-c3ccc(Cl)cc3)o2)c(Cl)cc1Cl
TGI [1]: > 100 µM | TGI [3]: > 100 µM | TGI [4]: > 100 µM | TGI [5]: > 100 µM | TGI [6]: > 100 µM | TGI [7]: > 100 µM | TGI [8]: > 100 µM | TGI [9]: > 100 µM | TGI [10]: 67.8 µM | TGI [11]: > 100 µM | TGI [12]: > 100 µM | TGI [13]: > 100 µM | TGI [14]: 55.8 µM | TGI [15]: 52.4 µM | TGI [16]: 98.5 µM | TGI [57]: > 100 µM | TGI [18]: > 100 µM | TGI [19]: > 100 µM | TGI [20]: 27.5 µM | TGI [21]: 91.6 µM | TGI [22]: 51 µM | TGI [23]: > 100 µM | TGI [24]: > 100 µM | TGI [25]: > 100 µM | TGI [26]: 88.6 µM | TGI [27]: > 100 µM | TGI [28]: > 100 µM | TGI [30]: 32.2 µM | TGI [31]: 72.4 µM | TGI [58]: 65.6 µM | TGI [32]: > 100 µM | TGI [33]: > 100 µM | TGI [34]: > 100 µM | TGI [35]: > 100 µM | TGI [36]: > 100 µM | TGI [37]: 61.4 µM | TGI [38]: > 100 µM | TGI [39]: > 100 µM | TGI [40]: 79.1 µM | TGI [41]: > 100 µM | TGI [42]: > 100 µM | TGI [43]: > 100 µM | TGI [44]: > 100 µM | TGI [45]: > 100 µM | TGI [46]: > 100 µM | TGI [47]: 60.7 µM | TGI [48]: > 100 µM | TGI [49]: > 100 µM | TGI [50]: > 100 µM | TGI [51]: 57.6 µM | TGI [52]: > 100 µM | TGI [53]: > 100 µM | TGI [55]: > 100 µM | TGI [56]: > 100 µM
